Experimental data reported in patent US20050170041A1, “Chewing gum compositions comprising monatin and methods for making same” (Cargill, Inc., priority 2003, published 2005).
Residues, ends and D or L forms follow the SMILES beside them.

What was measured:
[1] = Sensory evaluation of sweeteners in iced tea; format: in vivo; conditions: 200 ml serving, aspartame 450 ppm, monatin 40 ppm, panel n=6; for Comments: sweetness and flavor profile: sucralose 170 ppm
Description: Monatin formulations, including R,R monatin or R,R monatin/erythritol combinations, were assessed relative to other known sweeteners (aspartame and sucralose) in iced tea. The key sensory parameters assessed included sweetness quality, aftertaste, bitter taste and its aftertaste. Qualitative evaluation has been carried out.
An ice tea formulation was developed to evaluate sweetener performance (Table 7).
Sweeteners were added to tea at the following concentrations:
The evaluation of ice tea drinks was carried out by a panel (n=6) of experienced sensory evaluators.

[2] = Sweetness comparison procedure against sucrose reference solutions (sensory panel); format: in vivo; conditions: experienced sensory evaluators
Description: The S,S stereoisomer of monatin is approximately 50-200 times sweeter than sucrose by weight. The R,R stereoisomer of monatin is approximately 2000-2400 times sweeter than sucrose by weight. The sweetness of the monatin is calculated using experienced sensory evaluators in a sweetness comparison procedure, where a test sweetener solution is matched for sweetness intensity against one of a series of reference solutions.
Specifically, one may assess sweetness of a sweetener relative to sucrose by using a panel of trained sensory evaluators experienced in the sweetness estimation procedure. All samples (in same buffers) are served in duplicate at a temperature of 22° C.±1° C. Sample solutions may be prepared, for example, using a buffer comprising 0.16% (v/w) citric acid and 0.02% (v/w) sodium citrate at ˜pH 3.0. Test solutions, coded with 3 digit random number codes, are presented individually to panelists, in random order. Sucrose reference standards, ranging from 2.0-10.0% (w/v) sucrose, increasing in steps of 0.5% (w/v) sucrose are also provided. Panelists are asked to estimate sweetness by comparing the sweetness of the test solution to the sucrose standards. […]
Sucrose equivalent value (SEV) (e.g., % sucrose), determined by the panel of trained sensory evaluators, is plotted as a function of monatin concentration to obtain a dose response curve. […]

[3] = Sensory stability of monatin and aspartame at pH 2.5, 3.0, 4.0 at 40° C.; format: physicochemical; conditions: for Rate constant (k) of sweetness loss: 40° C., pseudo-first order assumed; for Sweetness Retained: after 100 days storage at 40° C.; for SEV Aspartame / Retention of Aspartame Sweetness: stored at 40° C., aspartame 400 ppm
Description: The sensory stability of monatin solutions prepared at pH 2.5, 3.0 and 4.0 and stored at 40° C. was monitored for 100 days. Loss of sweetness from these solutions was compared with the losses of sweetness from aspartame solutions prepared and stored under identical conditions.
The sensory stability of monatin (8% SEV, ˜55 ppm, synthetic blend containing approximately 96% of the 2R,4R/2S, 4S enantiometric pair and 4% of the 2R,4S/2S,4R enantiometric pair) in phosphate/citrate buffers having a pH of 2.5, 3.0, and 4.0 was examined after storage at 40° C. The stability of monatin was compared to that of aspartame (400 ppm) in the same buffers. Three sucrose reference solutions were prepared in the same phosphate/citrate buffers as the monatin and aspartame solutions. All prepared solutions were stored in the dark.
The sweetness of each sweetener relative to sucrose was assessed in duplicate by a panel (n=8) of trained sensory evaluators experienced in the sweetness estimation procedure. All samples (in the same buffers) were served in duplicate at a temperature of 22° C.±1° C. Monatin (test) solutions, coded with 3 digit random number codes were presented individually to panelists, in random order. Sucrose reference standards, ranging from 4.0-10.0% (w/v) sucrose, increasing in steps of 0.5% (w/v) sucrose were also provided. Panelists were asked to estimate sweetness by comparing the sweetness of the test solution to the sucrose standards. This was carried out by taking 3 sips of the test solution, followed by a sip of water, followed by 3 sips of sucrose standard followed by a sip of water, etc. Panelists were encouraged to estimate the sweetness to one decimal place, e.g., 6.8, 8.5. A five minute rest period was imposed between evaluating the test solutions. Panelists were also asked to rinse well and eat a cracker to reduce any potential carry over effects.
If a pseudo-first order breakdown reaction is assumed, a plot of logn percentage retention versus time (logn % RTN v. t) allows estimation of the half-life (t½) and rate constant (k) of sweetness loss under any given set of conditions. In so doing, the kinetics of monatin and aspartame sweetness loss may be summarized as follows in Table 14.

## OC[C@H]1O[C@H](O[C@]2(CCl)O[C@H](CCl)[C@@H](O)[C@@H]2O)[C@H](O)[C@@H](O)[C@H]1Cl [Sucralose]
[1]
  Comments: sweetness and flavor profile: Delay in sweetness onset means first

## N[C@@H](C[C@@](O)(Cc1c[nH]c2ccccc12)C(=O)O)C(=O)O (single isomer, unassigned) [R,R stereoisomer of monatin]
[2]
  sweetness relative to sucrose by weight: 2000-2400 times sweeter than sucrose

## COC(=O)[C@H](Cc1ccccc1)NC(=O)[C@@H](N)CC(=O)O [Aspartame, reference compound] (H-Asp-Phe-OMe)
[1]
  Comments: flavor enhancement (lemon flavor notes): tea flavor. No evidence of flavor
  Comments: sweetness and flavor profile: Good temporal characteristics although
[3]; pH 2.5
  Rate constant (k) of sweetness loss: 0.013 day⁻¹
  Sweetness Retained: 11%
[3]; pH 2.5, day 0
  SEV Aspartame: 7.34 % sucrose
[3]; pH 2.5, day 1
  Retention of Aspartame Sweetness: 94.0%
  SEV Aspartame: 6.90 % sucrose
[3]; pH 2.5, day 2
  Retention of Aspartame Sweetness: 92.6%
  SEV Aspartame: 6.80 % sucrose
[3]; pH 2.5, day 3
  Retention of Aspartame Sweetness: 89.9%
  SEV Aspartame: 6.60 % sucrose
[3]; pH 2.5, day 4
  Retention of Aspartame Sweetness: 85.7%
  SEV Aspartame: 6.29 % sucrose
[3]; pH 2.5, day 7
  Retention of Aspartame Sweetness: 81.9%
  SEV Aspartame: 6.01 % sucrose
[3]; pH 2.5, day 8
  Retention of Aspartame Sweetness: 81.5%
  SEV Aspartame: 5.98 % sucrose
[3]; pH 2.5, day 9
  Retention of Aspartame Sweetness: 81.3%
  SEV Aspartame: 5.97 % sucrose
[3]; pH 2.5, day 11
  Retention of Aspartame Sweetness: 79.8%
  SEV Aspartame: 5.86 % sucrose
[3]; pH 2.5, day 50
  Retention of Aspartame Sweetness: 57.1%
  SEV Aspartame: 4.19 % sucrose
[3]; pH 2.5, day 100
  Retention of Aspartame Sweetness: 10.9%
  SEV Aspartame: 0.80 % sucrose
[3]; pH 3.0
  Rate constant (k) of sweetness loss: 0.009 day⁻¹
  Sweetness Retained: 31%
[3]; pH 3.0, day 0
  SEV Aspartame: 7.15 % sucrose
[3]; pH 3.0, day 1
  Retention of Aspartame Sweetness: 96.5%
  SEV Aspartame: 6.90 % sucrose
[3]; pH 3.0, day 2
  Retention of Aspartame Sweetness: 96.1%
  SEV Aspartame: 6.87 % sucrose
[3]; pH 3.0, day 3
  Retention of Aspartame Sweetness: 92.3%
  SEV Aspartame: 6.60 % sucrose
[3]; pH 3.0, day 4
  Retention of Aspartame Sweetness: 89.9%
  SEV Aspartame: 6.43 % sucrose
[3]; pH 3.0, day 7
  Retention of Aspartame Sweetness: 86.3%
  SEV Aspartame: 6.17 % sucrose
[3]; pH 3.0, day 8
  Retention of Aspartame Sweetness: 82.9%
  SEV Aspartame: 5.93 % sucrose
[3]; pH 3.0, day 9
  Retention of Aspartame Sweetness: 83.1%
  SEV Aspartame: 5.94 % sucrose
[3]; pH 3.0, day 11
  Retention of Aspartame Sweetness: 81.5%
  SEV Aspartame: 5.83 % sucrose
[3]; pH 3.0, day 50
  Retention of Aspartame Sweetness: 65.9%
  SEV Aspartame: 4.71 % sucrose
[3]; pH 3.0, day 100
  Retention of Aspartame Sweetness: 30.8%
  SEV Aspartame: 2.20 % sucrose
[3]; pH 4.0
  Rate constant (k) of sweetness loss: 0.005 day⁻¹
  Sweetness Retained: 58%
[3]; pH 4.0, day 0
  SEV Aspartame: 7.10 % sucrose
[3]; pH 4.0, day 3
  Retention of Aspartame Sweetness: 95.1%
  SEV Aspartame: 6.75 % sucrose
[3]; pH 4.0, day 8
  Retention of Aspartame Sweetness: 87.8%
  SEV Aspartame: 6.23 % sucrose
[3]; pH 4.0, day 11
  Retention of Aspartame Sweetness: 84.8%
  SEV Aspartame: 6.02 % sucrose
[3]; pH 4.0, day 17
  Retention of Aspartame Sweetness: 81.0%
  SEV Aspartame: 5.75 % sucrose
[3]; pH 4.0, day 24
  Retention of Aspartame Sweetness: 82.4%
  SEV Aspartame: 5.85 % sucrose
[3]; pH 4.0, day 50
  Retention of Aspartame Sweetness: 74.5%
  SEV Aspartame: 5.29 % sucrose
[3]; pH 4.0, day 100
  Retention of Aspartame Sweetness: 57.7%
  SEV Aspartame: 4.10 % sucrose

## NC(CC(O)(Cc1c[nH]c2ccccc12)C(=O)O)C(=O)O (single isomer, unassigned) [S,S stereoisomer of monatin]
[2]
  sweetness relative to sucrose by weight: 50-200 times sweeter than sucrose
